≈ marks a conversion by molar mass, not a printed value.
Assays:
Format in all cases: cell-based
[1] = tested on: fatty acid synthesis pathway activity in MCF-7 human breast cancer cells; assay: [14C]acetate incorporation into total lipids; details: for IC50: Homo sapiens, MCF7, [14C]acetate incorporation into lipids; for 14C (IC50): [14C]acetate incorporation into lipids
Procedure: This assay measures the incorporation of [^14C]acetate into total lipids and is a measure of fatty acid synthesis pathway activity in vitro. It is utilized to measure inhibition of fatty acid synthesis in vitro.
MCF-7 human breast cancer cells cultured as above, are plated at 5×10^4 cells per well in 24-well plates. Following overnight incubation, the compounds to be tested, solubilized in DMSO, are added at 5, 10, and 20 μg/ml in triplicate, with lower concentrations tested if necessary. DMSO is added to triplicate wells for a vehicle control. C75 is run at 5 and 10 μg/ml in triplicate as positive controls. After 4 hours of incubation, 0.25 μCi of [^14C]acetate (10 μl volume) is added to each well.
After 2 hours of additional incubation, medium is aspirated from the wells and 800 μl of chloroform:methanol (2:1) and 700 μl of 4 mM MgCl2 is added to each well. Contents of each well are transferred to 1.5 Eppendorf tubes, and spun at full-speed for 2 minutes in a high-speed Eppendorf Microcentrifuge 5415D. After removal of the aqueous (upper) layer, an additional 700 μl of chloroform:methanol (2:1) and 500 μl of 4 mM MgCl2 are added to each tube and then centrifuged for 1 minutes as above. The aqueous layer is removed with a Pasteur pipette and discarded. An additional 400 μl of chloroform:methanol (2:1) and 200 μl of 4 mM MgCl2 are added to each tube, then centrifuged and aqueous layer is discarded. The lower (organic) phase is transferred into a scintillation vial and dried at 40° C. under N2 gas. Once dried, 3 ml of scintillant (APB #NBC5104) is added and vials are counted for ^14C. The Beckman Scintillation counter calculates the average cpm values for triplicates.
The IC50 for the compounds is defined as the concentration of drug leading to a 50% reduction in [^14C]acetate incorporation into lipids compared to controls. This is determined by plotting the average cpm for each inhibitor concentration tested, performing linear regression and computing the best-fit line, r^2 values, and 95% confidence intervals. The average cpm values are computed by the Beckman scintillation counter (Model LS6500) for each compound concentration. Computation of linear regression, best-fit line, r^2, and 95% confidence intervals are calculated using Prism Version 3.0 (Graph Pad Software).

[2] = tested on: MCF-7 human breast cancer cells; assay: Crystal violet cell growth assay; details: MCF7, MCF-7, 72 hours, read-out: Cr. Violet (IC50)
Procedure: The crystal violet assay measures cell growth but not cytotoxicity. This assay employs crystal violet staining of fixed cells in 96-well plates with subsequent solubilization and measurement of OD490 on a spectrophotometer. The OD490 corresponds to cell growth per unit time measured. Cells are treated with the compounds of interest or vehicle controls and IC50 for each compound is computed.
To measure the cytotoxicity of specific compounds against cancer cells, 5×10^4 MCF-7 human breast cancer cells, obtained from the American Type Culture Collection are plated per well in 24 well plates in DMEM medium with 10% fetal bovine serum, penicillin, and streptomycin. Following overnight culture at 37° C. and 5% CO2, the compounds to be tested, dissolved in DMSO, are added to the wells in 1 μl volume at the following concentrations: 50, 40, 30, 20, and 10 μg/ml in triplicate. Additional concentrations are tested if required. 1 μl of DMSO is added to triplicate wells are the vehicle control. C75 is run at 10, and 5 μg/ml in triplicate as positive controls.
After 72 hours of incubation, cells are stained with 0.5 ml of Crystal Violet stain (0.5% in 25% methanol) in each well. After 10 minutes, wells are rinsed, air dried, and then solubilized with 0.5 ml 10% sodium dodecylsulfate with shaking for 2 hours. Following transfer of 100 μl from each well to a 96-well plate, plates are read at OD490 on a Molecular Devices SpectraMax Plus Spectrophotometer Average OD490 values are computed using SOFTmax Pro Software (Molecular Devices) and IC50 values are determined by linear regression analysis using Prism version 3.02 (Graph Pad Software, San Diego).

[3] = tested on: β-Oxidation of (1-14C) palmitic acid in cells; assay: β-Oxidation assay, isolation of acid soluble products; parameters: unit not given here
Procedure: A 24 well plate with 1 ml per well was prepared with 2.5×10^5 cells /well. The cells were incubated O/N. The next day, a solubilized palmitate solution was prepared. 50 μls of (1−^14C) Palmitic acid was added to a 2 ml centrifuge tube and dried under nitrogen gas. 2 mls of α-CD (α-Cyclodextran)—10 mg/ml in 10 mM Tris were added. This solution was incubated in a 37° C. water bath for 30 minutes. A hot mix was prepared by adding 25 μl of this solution to 2.5 μls of 200 μM Carnitine and 222.5 μl of serum free medium that is used for cells. The cells were then treated with the test compound in triplicate, and incubated. at 37° C. for 60 minutes. The medium was removed and 250 μl of the hot mix were added. The test compound was added again, and further incubated at 37° C. for 60 minutes. The reaction was stopped with 50 μl of 2.6 N HClO4. The contents of the plate were transferred to a 1.5 ml centrifuge tube, and 50 μl of 4N KOH were then added, and the tube incubated in a 60° C. water bath for 30 min. Sodium acetate (1 M, 75 μl) and sulfuric acid (3N, 50 μl) were added to the solution and vortexed. The tube was spun for 7 minutes at 1000 rpm at room temperature. A portion (225 μl) was removed, and the following were added (vortex after each addition, twice at the end): 938 μl of 1:1 Chloroform: Methanol; 468 μl of Chloroform; 281 μl distilled Water. The tubes were spun at 1000 rpm for 5 minutes. The upper phase was removed into a large glass scintillation vial and 5 ml of Budget solvent (scintillation liquid) was added. The tubes were well vortexed. Finally, ^14C was counted for one minute.

| Compound | IC50 [2] | 14C (IC50) [1] | Beta oxidation ([3]; 1.25 ug/ml) | Beta oxidation ([3]; 2.5 ug/ml) | Beta oxidation ([3]; 5 ug/ml) | Beta oxidation ([3]; 10 ug/ml) | other results |
| --- | --- | --- | --- | --- | --- | --- | --- |
| CCCCCCCCC1OC(=O)C(=O)C1C(=O)OCC (centres unmarked) [Compound 1] | 28 µg/mL (≈ 98.5 µM) |  |  |  |  |  | IC50 [1]: 40.7 ± 7.1 µg/mL (≈ 143 µM) |
| CCCCC1OC(=O)C(O)=C1C(=O)OCC (centres unmarked) [Compound 2] | 41.9 µg/mL (≈ 184 µM) | Neg |  |  |  |  | Beta oxidation ([3]; 0.19 ug/ml): 102; Beta oxidation ([3]; 0.39 ug/ml): 102; Beta oxidation ([3]; 1.56 ug/ml): 112; Beta oxidation ([3]; 12.5 ug/ml): 108; Beta oxidation ([3]; 50 ug/ml): 45; Beta oxidation ([3]; .78 ug/ml): 107 |
| CCCCCCCCC1OC(=O)C(OCC(=O)OCC)=C1C(=O)OCC (centres unmarked) [Compound 3] | 35.4 µg/mL (≈ 95.6 µM) |  | 113 | 131 | 138 | 79 | IC50 [1]: 30 µg/mL (≈ 81 µM) |
| CCCCCCCCC1OC(=O)C(OC)=C1C(=O)OCC (centres unmarked) [Compound 4] | 10.7 µg/mL (≈ 35.9 µM) | Neg | 112 | 119 | 116 | 104 |  |
| CCCCCCCCC1OC(=O)C(OCc2ccccc2)=C1C(=O)OCC (centres unmarked) [Compound 5] | 17.1 µg/mL (≈ 45.7 µM) | Neg (stim) | 108 | 101 | 115 | 74 |  |
| C=CCOC1=C(C(=O)OCC)C(CCCCCCCC)OC1=O (centres unmarked) [Compound 6] | 22 µg/mL (≈ 67.8 µM) | Neg | 118 | 125 | 112 | 101 |  |
| CCCCCCCCC1OC(=O)C(OC(=O)OCC)=C1C(=O)OCC (centres unmarked) [Compound 7] |  | Neg |  |  |  |  | Beta oxidation ([3]; 0.09 ug/ml): 99; Beta oxidation ([3]; 0.39 ug/ml): 107; Beta oxidation ([3]; 1.56 ug/ml): 113; Beta oxidation ([3]; 6.25 ug/ml): 146; Beta oxidation ([3]; 25 ug/ml): 131; Beta oxidation ([3]; 100 ug/ml): 54 |

From patent US20100029761A1, “NOVEL COMPOUNDS, PHARMACEUTICAL COMPOSITIONS CONTAINING SAME, AND METHODS OF USE FOR SAME” (priority 2005, published 2010)
